Patent US20260094676A1, “METHOD AND APPARATUS FOR PREDICTING DRUG BIOAVAILABILITY” (LIVERPOOL JOHN MOORES UNIVERSITY, priority 2022, published 2026)
Structures can show the parent of a compound that is named as a salt. Where two headings read alike, the source gives them in different places. Values belong to the compound of their own block, whether it stands above or below them.

Key:
[1] = Reversed phase TLC lipophilicity measurement on Leucaena oil device (LOD); conditions: for ICHI (isocratic chromatographic hydrophobicity index): LOD R1 to R10, methanol in water mobile phase
Experimental: Silica gel GF254 plates (5×10 cm) are successively developed by ascending development in the oil solution. Ten consecutive runs were carried out in each of the six tanks set up to prepare the Leucaena oil device (LOD).
The plates were air-dried at room temperature and the plates were developed in saturated development tanks containing 10 mL of the mobile phase. The plates were developed over a path of 7 cm and allowed to air-dry before visualization under UV light at 254 nm. The retardation factor (Rf) was then measured. The development was performed in duplicate.
Rm was computed by the equation: […]
The linear regression of Rm versus organic modifier fraction is governed by the Soczewinski Wachmeister equation: […]
The mobile phase used consisted of various concentrations of methanol in 0.1N HCl and Phosphate buffer pH 6.8.
(§1) Data analysis was done as previously described, Rf was transformed to Rm and linear regression analysis implemented to determine the lipophilicity parameter, ICHI.
(§2) Data analysis was performed as described earlier under data analysis in previous sections. Rf is transformed to Rm and linear regression of Rm versus methanol fraction produces linear regression parameters that provide the lipophilicity metric.

[2] = dogs, cited from earlier work
[3] = concomitant intake of kolanut with halofantrine; cited from earlier work
[4] = cited from earlier work
[5] = humans, cited from earlier work
[6] = Experimental: The mobile phase used consisted of various concentrations of methanol in 0.1N HCl and phosphate buffer pH 6.8.
as §1, §2

[7] = 48 h
[8] = halofantrine administered postprandially

Structure (SMILES): CCCCN(CCCC)CCC(O)c1cc2c(Cl)cc(Cl)cc2c2cc(C(F)(F)F)ccc12 (stereo not drawn) [halofantrine]
increase of oral bioavailability ([2]; administered postprandially): 12 fold
Cmax, effect of concomitant kolanut [3]: significantly decreased
t1/2, effect of concomitant kolanut [3]: no significant effect
tmax, effect of concomitant kolanut [3]: no significant effect
plasma Hfm/Hf AUC (0-72 h) ratio ([4]; fasted oral administration of Hf with ketoconazole): less than 0.05
plasma Hfm/Hf AUC (0-72 h) ratio ([4]; fasted oral administration of Hf without ketoconazole): 0.56
increase of oral bioavailability ([5]; administered postprandially): 3 fold
Solubility interaction quotient (Qsi), fold more lipophilic than caffeine ([1]; LOD, halofantrine versus caffeine): 24 fold
Qsi ([1]; LOD, ketoconazole and halofantrine): 1.42
Solubility interaction quotient (Qsi), fold more lipophilic than caffeine ([6]; ODS, halofantrine versus caffeine): 2 fold

Structure (SMILES): CCCCNCCC(O)c1cc2c(Cl)cc(Cl)cc2c2cc(C(F)(F)F)ccc12 (stereo not drawn) [desbutylhalofantrine]
decrease of proportional formation of desbutyl metabolite [2, 8]: 6.8 fold
Cmax, effect of concomitant kolanut [3]: significantly decreased
t1/2, effect of concomitant kolanut [3]: no significant effect
tmax, effect of concomitant kolanut [3]: no significant effect
decrease of proportional formation of desbutyl metabolite [5, 8]: 2.4 fold

Structure (SMILES): CC(=O)N1CCN(c2ccc(OCC3COC(Cn4ccnc4)(c4ccc(Cl)cc4Cl)O3)cc2)CC1 (stereo not drawn) [ketoconazole]
critical point ('critical micellar concentration') of ketoconazole for halofantrine solubility [7]: 0.015%
Lipophilicity classification based on ICHI [1]: amphiphilic
ICHI, mean value ([1]; LOD, mean over 0.1N HCl and phosphate buffer pH 6.8 mobile phases): 0.70
Lipophilicity classification based on ICHI [6]: lipophilic
ICHI, mean value ([6]; ODS, mean over 0.1N HCl and phosphate buffer pH 6.8 mobile phases): 0.86

Continued, values first:

ICHI (isocratic chromatographic hydrophobicity index) [1]: 0.46-0.48
Structure (SMILES): Oc1ccc2ccccc2c1 [β-naphthol]

ICHI (isocratic chromatographic hydrophobicity index) [1]: 0.61-0.63
Structure (SMILES): COc1ccc2cc(CCC(C)=O)ccc2c1 [nabumetone]

ICHI (isocratic chromatographic hydrophobicity index) [1]: 0.52-0.54
Structure (SMILES): Oc1cccc2ccccc12 [α-naphthol]

Qsi ([1]; LOD, combination with model Garcinia bioflavonoid): about 10
Structure (SMILES): O=C(O)c1cn(C2CC2)c2cc(N3CCNCC3)c(F)cc2c1=O [ciprofloxacin hydrochloride]
